Measurements from ChEMBL document CHEMBL1201862, “PubChem BioAssay data set” (2004).
The source made the active and inactive calls.

Legend:
[1] = target: T1, Sentrin-specific protease 1 (Homo sapiens, UniProt Q9P0U3); experiment: Dose response confirmation of small molecule inhibitors of the catalytic domain of the SUMO protease, SENP1 in a FRET assay.; format: functional; conditions: read-out: IC50_Mean
[2] = target: T1, Sentrin-specific protease 1; experiment: SENP1 catalytic domain blockers, concentration series – biochemical, kinetic FRET, dose response (AID 651697); format: functional; conditions: read-out: IC50_Mean
Troponin, cardiac muscle = Troponin, cardiac muscle (Homo sapiens, UniProt P19429+P45379+P63316); experiment: Fluorescence-based biochemical high throughput dose response assay for activators of the calcium sensitivity of cardiac Regulated Thin Filaments (RTF). [Related pubchem assays (depositor defined):AID493008, AID493018, AID504382, AID504383]; format: protein-complex assay
[3] = cytotoxicity toward MDA-MB-231 breast cancer cells – cell-based, CellTiter-Glo luminescence, cherry-pick, cytotoxicity control for RAD54 inhibitor project, dose response (AID 651692); format: functional
[4] = target: T2, DNA repair protein RAD52 homolog (Homo sapiens, UniProt P43351); format: functional, biochemical
T2 sequence (P43351 whole entry): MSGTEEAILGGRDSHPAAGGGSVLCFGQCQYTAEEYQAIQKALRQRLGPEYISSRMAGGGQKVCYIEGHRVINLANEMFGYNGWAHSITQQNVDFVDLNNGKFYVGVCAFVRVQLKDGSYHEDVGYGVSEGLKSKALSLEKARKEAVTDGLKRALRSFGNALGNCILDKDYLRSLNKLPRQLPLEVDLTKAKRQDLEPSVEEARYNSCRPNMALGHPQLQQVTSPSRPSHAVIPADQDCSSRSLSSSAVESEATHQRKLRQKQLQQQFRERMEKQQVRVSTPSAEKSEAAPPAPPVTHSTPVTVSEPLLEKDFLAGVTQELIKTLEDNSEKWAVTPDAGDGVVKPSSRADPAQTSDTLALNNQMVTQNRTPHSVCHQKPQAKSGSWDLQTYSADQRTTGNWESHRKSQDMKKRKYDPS

[5] = target: T3, DNA repair and recombination protein RAD54-like (Homo sapiens, UniProt Q92698); experiment: RAD54 Holliday junction migration blockers – biochemical, fluorescence, cherry-picked samples, dose series, confirmation (AID 651657); format: functional
T3 sequence (Q92698 whole entry): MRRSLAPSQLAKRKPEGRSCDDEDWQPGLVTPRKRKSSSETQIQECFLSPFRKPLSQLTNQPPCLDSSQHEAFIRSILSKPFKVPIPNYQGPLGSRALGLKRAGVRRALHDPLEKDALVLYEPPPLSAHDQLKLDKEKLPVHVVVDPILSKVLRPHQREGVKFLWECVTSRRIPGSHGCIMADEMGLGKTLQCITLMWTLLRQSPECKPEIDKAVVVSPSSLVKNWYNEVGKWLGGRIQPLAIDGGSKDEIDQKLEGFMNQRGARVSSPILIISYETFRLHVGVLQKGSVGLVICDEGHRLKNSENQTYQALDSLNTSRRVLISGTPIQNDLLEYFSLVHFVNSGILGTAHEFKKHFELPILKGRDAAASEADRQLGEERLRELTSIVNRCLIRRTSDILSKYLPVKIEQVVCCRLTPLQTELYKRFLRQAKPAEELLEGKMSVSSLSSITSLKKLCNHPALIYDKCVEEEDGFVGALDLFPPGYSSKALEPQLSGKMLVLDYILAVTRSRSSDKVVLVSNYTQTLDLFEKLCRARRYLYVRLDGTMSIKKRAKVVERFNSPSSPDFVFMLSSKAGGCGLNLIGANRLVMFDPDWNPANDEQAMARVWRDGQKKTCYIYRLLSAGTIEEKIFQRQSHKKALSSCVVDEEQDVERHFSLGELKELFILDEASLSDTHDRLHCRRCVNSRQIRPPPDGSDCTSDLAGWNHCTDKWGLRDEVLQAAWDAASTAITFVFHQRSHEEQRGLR

[6] = target: T4, Sentrin-specific protease 8 (Homo sapiens, UniProt Q96LD8); format: functional
T4 sequence (Q96LD8 whole entry): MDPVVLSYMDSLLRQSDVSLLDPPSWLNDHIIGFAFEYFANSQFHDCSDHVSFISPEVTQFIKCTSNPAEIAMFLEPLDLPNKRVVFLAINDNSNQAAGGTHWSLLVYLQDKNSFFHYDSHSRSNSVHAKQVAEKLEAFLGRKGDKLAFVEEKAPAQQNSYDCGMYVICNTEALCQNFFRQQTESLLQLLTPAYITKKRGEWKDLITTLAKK

[7] = target: T4, Sentrin-specific protease 8; format: functional; remark: listed apart in the source
[8] = toxicity toward HepG2 liver cells – cell-based, plate reader, cherry-pick, antagonist series, cytotoxicity control, dose response (AID 743416); format: functional
Beta Lactamase = Beta Lactamase (Pseudomonas aeruginosa, UniProt Q932Y6); experiment: BLA reporter interference, concentration series – BLA reporter cells, FRET fluorescence, artefact control for NOD2-RIPK2 interaction inhibitor project, dose response (AID 651552); format: functional, cell-based
[9] = general mammalian cell viability loss – inhibitor set, cherry-pick, set 2, cytotoxicity control for miR-122 modulator project, dose response (AID 720697); format: functional, cell-based
[10] = activation of miR-122 Renilla sensor silencing – cell-based, Huh7 psiCHECK-miR122, Renilla luciferase, cherry-picked, dose response (AID 651956); format: functional;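 also: huh7 hepatoma cells stably carrying a psiCHECK-2 miR-122 sensor plasmid; renilla luciferase signal reporting endogenous miR-122 activity after 48 h compound exposure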
[11] = target: T5, Type-1 angiotensin II receptor (Homo sapiens, UniProt P30556); experiment: antagonism of angiotensin II type 1 receptor – cell-based, uHTS hits, selectivity assay for APJ receptor antagonist project, dose response (AID 463214); format: functional;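 also: antagonist potency against angiotensin II stimulated AT1 response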
T5 sequence (P30556 whole entry): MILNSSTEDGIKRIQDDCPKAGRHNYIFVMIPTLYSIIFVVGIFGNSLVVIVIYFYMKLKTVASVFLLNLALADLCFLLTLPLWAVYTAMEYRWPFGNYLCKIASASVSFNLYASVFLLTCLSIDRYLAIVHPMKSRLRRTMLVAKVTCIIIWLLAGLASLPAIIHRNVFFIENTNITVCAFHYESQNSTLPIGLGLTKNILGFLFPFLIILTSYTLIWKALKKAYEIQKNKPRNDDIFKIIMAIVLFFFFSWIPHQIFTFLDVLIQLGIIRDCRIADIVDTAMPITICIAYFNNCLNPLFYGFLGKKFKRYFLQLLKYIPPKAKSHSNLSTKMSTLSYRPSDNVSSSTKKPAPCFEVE

[12] = Fluorescence-based cell-based high throughput dose response assay for inhibitors of the interaction of nucleotide-binding oligomerization domain containing 2 (NOD2) and the receptor-interacting serine-threonine kinase 2 (RIPK2).; format: functional; conditions: Homo sapiens
[13] = Trypanosoma cruzi growth suppression in host cells – NIH3T3 host cells, beta-gal luminescence, confirmation (AID 2044); format: functional, cell-based;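 also: intracellular parasites grown in NIH/3T3 mouse fibroblasts as host cells; luminescent beta-galactosidase reporter signal from transgenic T. cruzi replicating inside host cells; inhibitors lower the luminescence signal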
[14] = viability loss in HEK293 cells – cell-based, plate reader, cherry-picked samples, cytotoxicity control, dose response (AID 743446); format: functional
[15] = general mammalian cell viability loss – activator set, cherry-pick, cytotoxicity control for miR-122 modulator project, dose response (AID 720690); format: functional, cell-based;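 also: HEK293T human cells scored for general mammalian cytotoxicity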
Protein RecA = target: T6, Protein RecA (Mycobacterium tuberculosis, UniProt P9WHJ3); experiment: Fluorescence Cell-Free Homogeneous Dose Retest to Identify Inhibitors of RecA-Intein Splicing Activity. [Related pubchem assays (depositor defined):AID2097, AID2223, AID489010, AID492950]; format: functional
T6 sequence (P9WHJ3 whole entry): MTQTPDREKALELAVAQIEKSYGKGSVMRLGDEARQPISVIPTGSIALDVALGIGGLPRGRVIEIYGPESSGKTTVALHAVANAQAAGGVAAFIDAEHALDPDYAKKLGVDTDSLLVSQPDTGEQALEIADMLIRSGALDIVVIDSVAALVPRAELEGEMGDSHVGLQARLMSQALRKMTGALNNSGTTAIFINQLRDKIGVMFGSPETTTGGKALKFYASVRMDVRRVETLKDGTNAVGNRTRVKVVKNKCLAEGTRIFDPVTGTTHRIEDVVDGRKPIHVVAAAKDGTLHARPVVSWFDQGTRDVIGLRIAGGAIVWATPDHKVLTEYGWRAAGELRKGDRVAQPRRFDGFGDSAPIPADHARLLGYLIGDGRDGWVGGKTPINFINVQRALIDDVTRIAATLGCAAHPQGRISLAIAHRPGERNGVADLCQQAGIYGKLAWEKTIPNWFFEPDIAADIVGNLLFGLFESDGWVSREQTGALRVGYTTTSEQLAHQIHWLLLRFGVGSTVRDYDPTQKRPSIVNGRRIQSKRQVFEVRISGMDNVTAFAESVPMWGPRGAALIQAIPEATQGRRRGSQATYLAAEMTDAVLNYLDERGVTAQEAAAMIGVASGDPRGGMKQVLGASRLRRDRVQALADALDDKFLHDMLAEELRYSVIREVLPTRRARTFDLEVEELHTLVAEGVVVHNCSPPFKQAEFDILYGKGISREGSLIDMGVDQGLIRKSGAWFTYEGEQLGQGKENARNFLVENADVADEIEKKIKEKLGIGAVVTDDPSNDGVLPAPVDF

[16] = blockers of bursicon-stimulated LGR2 cAMP reporter – cell-based, HEK293, CRE-luciferase reporter, cherry pick, set 2, dose response (AID 743343); format: functional;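 also: transfected cells were stimulated with diluted bursicon conditioned medium after compound addition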
[17] = blockade of melanocortin 4 receptor signaling – cell-based, plate reader, cherry pick, counter-screen for LGR2 antagonist project, dose response (AID 743444); format: functional;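 also: transfected HEK 293 cells stimulated with alpha-MSH peptide; potency of inhibitors of the alpha-MSH evoked signal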
Beta-galactosidase = Beta-galactosidase (Escherichia coli, UniProt Q8VNN2); experiment: PubChem AID 485352; format: functional
[18] = A549 cell cytotoxicity, dose response, cytotoxicity control, plate reader, cherry-pick, antagonist series (AID 743412); format: functional, cell-based
[19] = NIH3T3 cell viability loss – ATP luminescence, mouse fibroblasts, counter-screen, dose response (AID 2010); format: functional, cell-based;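 also: cells exposed to compound for about 90 hours before reading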
[20] = target: T7, Replicative DNA helicase DnaB (Mycobacterium tuberculosis, UniProt P9WMR3); experiment: DnaB intein splicing inhibitors, dose response, biochemical, cell-free fluorescence (AID 449749); format: functional
T7 sequence (P9WMR3 whole entry): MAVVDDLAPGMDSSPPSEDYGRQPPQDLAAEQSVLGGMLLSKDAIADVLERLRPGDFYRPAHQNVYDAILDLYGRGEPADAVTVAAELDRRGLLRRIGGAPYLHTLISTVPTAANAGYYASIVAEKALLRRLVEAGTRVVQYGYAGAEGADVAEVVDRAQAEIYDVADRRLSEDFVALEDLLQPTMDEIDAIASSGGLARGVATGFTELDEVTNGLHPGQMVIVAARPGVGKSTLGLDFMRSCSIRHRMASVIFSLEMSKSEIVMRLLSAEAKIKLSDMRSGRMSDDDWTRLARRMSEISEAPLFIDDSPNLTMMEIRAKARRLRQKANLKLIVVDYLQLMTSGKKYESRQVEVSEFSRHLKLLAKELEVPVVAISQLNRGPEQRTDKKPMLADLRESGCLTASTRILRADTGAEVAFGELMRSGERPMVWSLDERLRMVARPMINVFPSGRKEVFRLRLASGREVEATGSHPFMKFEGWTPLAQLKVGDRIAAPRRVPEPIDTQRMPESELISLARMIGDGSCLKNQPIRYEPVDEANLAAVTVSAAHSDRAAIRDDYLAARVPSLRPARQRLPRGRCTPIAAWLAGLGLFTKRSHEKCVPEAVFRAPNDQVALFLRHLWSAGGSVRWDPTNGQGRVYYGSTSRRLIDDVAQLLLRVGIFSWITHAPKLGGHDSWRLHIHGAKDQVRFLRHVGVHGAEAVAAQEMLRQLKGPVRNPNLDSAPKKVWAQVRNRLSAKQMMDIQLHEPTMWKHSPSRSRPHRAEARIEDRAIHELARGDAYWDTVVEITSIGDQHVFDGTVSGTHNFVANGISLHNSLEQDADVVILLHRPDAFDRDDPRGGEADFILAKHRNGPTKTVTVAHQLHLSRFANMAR

[21] = target: G-protein coupled receptor 55 (Homo sapiens, UniProt Q9Y2T6); experiment: inhibition of LPI-stimulated GPR55 beta-arrestin translocation – imaging, U2OS, beta-arrestin-GFP, LPI agonist, primary screen (AID 2013); format: functional;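 also: antagonist potency measured as reduced agonist-driven arrestin aggregation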

CC(=O)Oc1ccc(N2C(=O)C3C(C2=O)C(C(=O)c2ccc(Cl)cc2)N2CCCC32)cc1 (stereo not given)
IC50 [1]: 4.65 µM (active) | IC50 [2]: 7.5 µM (active) | EC50 (Troponin, cardiac muscle): 23.5 µM (inactive)

CN(C)CCCNc1cc(-c2ccccc2)nc2cc(-c3cccc(F)c3)nn12
AC50 [3]: 24.4 µM (active) | AC50 [4]: 15.1 µM (active) | AC50 [5]: 21.1 µM (active)

Cn1cnc2c(O)ncc([N+](=O)[O-])c21
IC50 [6]: 10.4 µM (active) | IC50 [7]: > 100 µM (inactive)

CNC(=O)c1nnsc1S(=O)(=O)c1ccc(Cl)cc1
AC50 [8]: 7.37 µM (active) | IC50 (Beta Lactamase): 11.3 µM (inactive) | AC50 [9]: 4.54 µM (active) | AC50 [10]: 18.8 µM (active) | IC50 [11]: 9.67 µM (active) | IC50 [12]: 2.13 µM (active) | EC50 [13]: 1.24 µM (active) | AC50 [14]: 7.5 µM (active) | AC50 [15]: 2.7 µM (active) | EC50 (Protein RecA): 14.3 µM (active) | AC50 [16]: 3.74 µM (active) | AC50 [17]: 3.28 µM (active) | EC50 (Beta-galactosidase): > 40 µM (inactive) | AC50 [18]: 8.58 µM (active) | EC50 [19]: 2.47 µM (active) | AC50 [20]: 15.3 µM (active) | IC50 [21]: 10.6 µM (inactive)
